Source: PubChem BioAssay AID602331 (Johns Hopkins Ion Channel Center, 2012)
Activity calls are given as the source filed them.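 Rule for the calls: active = compound boosting capsaicin-evoked TRPV1 current more than 1.5 times over the capsaicin response; inactive = the rest.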

Target: Transient receptor potential cation channel subfamily V member 1 (Homo sapiens) (UniProt Q8NER1)
Test: allosteric agonists potentiating TRPV1 currents, confirmation, QPatch automated patch clamp, HEK293 cells (AID 602331)
Conditions: HEK293-TRPV1 QPatch current potentiation, +100 mV, capsaicin; at 10 µM; active compounds read high

Transient receptor potential cation channel subfamily V member 1 (Homo sapiens), sequence (Q8NER1 whole entry, looked up): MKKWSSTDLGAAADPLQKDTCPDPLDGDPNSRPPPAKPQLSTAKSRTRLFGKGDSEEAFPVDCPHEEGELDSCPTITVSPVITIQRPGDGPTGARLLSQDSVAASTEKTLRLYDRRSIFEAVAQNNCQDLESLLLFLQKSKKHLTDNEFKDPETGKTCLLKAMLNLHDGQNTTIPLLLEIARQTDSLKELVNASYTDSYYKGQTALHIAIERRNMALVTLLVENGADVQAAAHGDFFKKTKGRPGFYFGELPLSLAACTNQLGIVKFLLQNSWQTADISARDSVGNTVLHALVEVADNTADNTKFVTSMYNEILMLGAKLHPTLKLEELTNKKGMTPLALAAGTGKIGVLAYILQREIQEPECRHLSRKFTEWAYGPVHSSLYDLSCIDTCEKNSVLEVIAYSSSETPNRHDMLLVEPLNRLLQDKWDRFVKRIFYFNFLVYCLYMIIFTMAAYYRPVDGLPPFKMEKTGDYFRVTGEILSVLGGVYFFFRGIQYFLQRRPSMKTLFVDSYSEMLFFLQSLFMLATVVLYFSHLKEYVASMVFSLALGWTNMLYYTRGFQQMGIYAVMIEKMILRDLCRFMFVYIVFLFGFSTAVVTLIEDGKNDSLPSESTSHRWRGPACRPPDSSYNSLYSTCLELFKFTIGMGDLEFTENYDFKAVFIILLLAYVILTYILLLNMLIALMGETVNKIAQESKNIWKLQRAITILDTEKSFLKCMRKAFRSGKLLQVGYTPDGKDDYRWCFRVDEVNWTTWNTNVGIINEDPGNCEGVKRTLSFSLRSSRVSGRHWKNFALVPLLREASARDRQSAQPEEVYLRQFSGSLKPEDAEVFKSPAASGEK

Row | SMILES | fold potentiation
1 | CC1=C(C)/C(=N\OS(=O)(=O)c2ccc(C)cc2)C=CC1=O | 1.63
2 | O=C(COC(=O)c1ccc2c(c1)C(=O)N(Cc1ccncc1)C2=O)Nc1ccccc1[N+](=O)[O-] | 3.23
3 | Cc1csc2c(=O)sc(NC(=O)c3ccc(F)cc3Cl)nc12 | 1.08 (inactive)
4 | O=c1c(/C=N/OCc2ccc(Cl)cc2Cl)c[nH]n1-c1cccc(Cl)n1 | 0.906 (inactive)
5 | O=C(CNc1cccc(S(=O)(=O)N2CCOCC2)c1)Nc1cccc(Br)c1 | 0.827 (inactive)
6 | CC(=O)Nc1cccc(C(=O)OCC(=O)NCc2cc(C)c(O)c(C)c2)c1 | 0.956 (inactive)
7 | CC(C)C(=O)Nc1ccc(C(=O)CN2C(=O)NC3(CCOc4ccccc43)C2=O)cc1 (configuration not stated) | 0.776 (inactive)
